Entries after “also recorded” stand apart in the source; their conditions may differ. Counter-ions that a name gives are not always drawn. Like-named read-outs stand apart in the source and are kept apart here.
Key:
[1] = mice; cited from earlier work
AD pathology = settings: cited from earlier work
[2] = rats; cited from earlier work
[3] = Lithium levels in blood plasma, brain, kidney and liver of mice after oral gavage (lithium ELISA); format: in vivo, C57BL/6J male mice
Method: C57BL/6J male mice at 4 months of age were treated with LiCl or LiCS at 0.04 mmol lithium/mouse p.o by gavage, followed by determination of lithium levels in blood plasma, brain, kidney and liver at 0.5, 1, 2, 3, 5 and 24 h after gavage by ELISA (N=2 mice/time point).
At 0.5, 1, 2, 3, 5 and 24 h after treating mice with LiCl or LiCS p.o. by gavage, mice were anesthetized with isoflourane (50 mg/kg) (Sigma-Aldrich), euthanized by bilateral thoracotomy, and blood was collected. Brain, kidney, and liver were harvested, homogenized in 400 μL ddH2O with Minilys tissue homogenizer (Bertin Technologies, Montigny-le-Bretonneux, France), and centrifuged for 30 min. Lithium levels in plasma and supematants from brain, kidney, and liver homogenates were determined by ELISA (Biovision, Milpitas, Calif.) following the manufacturer's instructions. Plasma, brain, kidney and liver homogenates from control mice were used to generate standard curve.

[4] = system: GSK3β (Ser9) phosphorylation; test: Inhibitory GSK3β (Ser9) phosphorylation and total GSK3β by Western blot, statements covering both CHO and SH-SY5Y cells; format: cell-based; settings: for effect on total GSK3β levels: any dose; for concentration at which increase of pGSK3β starts / maximal increase of pGSK3β: both CHO and SH-SY5Y cells (summary)
Method: (§1) Human neuroblastoma SH-SY5Y cells (ATCC, Manassas, Va.) were cultured in DMEM/Nutrient Mixture F-12 (DMEM/F-12), 10% fetal bovine serum (FBS) and 15 mM HEPES. Chinese Hamster Ovary cells (CHO, Millipore Sigma), human embryonic kidney 293 cells expressing wild-type tau (HEK293/tau cells, ATCC) and mouse BV2 microglial cells (Creative Bioarray, Shirley, N.Y.) were cultured in DMEM with 10% FBS. SH-SY5Y cells and CHO cells were cultured in 24-well plates at a density of 2.5×10^5 cells/well. HEK293/tau cells were cultured in 24-well plates at a density of 3.5×10^5 cells/well, after being treated with Tetracycline (1:1000) for about 24 h to create high and stable cells lines (24).
(§2) Cells were treated with LiCS or NaCS at 0, 5, 10, 20, 40, 60 or 90 μM or LiCl at 0, 0.06, 0.15, 0.3, 0.6, 1.2 and 2.5 mM for 18 hours, followed by washing with ice-cold PBS 3×, lysis with cell lysis buffer and centrifugation at 1.4×10^4 rpm for 20 minutes. The supernatants were then used for analysis of GSK3β (Ser) and tau (Thr^231) phosphorylation by Western Blot (WB) and WB bands were calculated by Image J software (Java 1.6.0_20, NIH, USA).

[5] = system: GSK3β (Ser9) phosphorylation; test: Inhibitory GSK3β (Ser9) phosphorylation by Western blot in SH-SY5Y cells; format: cell-based, Human; settings: for maximal increase of pGSK3β: 18 h; for concentration at which increase of pGSK3β starts: 18 h treatment, WB densitometry
Method: as §1, §2

LPS-induced TNFα = format: cell-based, mouse; settings: for concentration at which decrease of LPS-induced TNFα starts: LPS 100 ng/ml, 3 h
[6] = system: GSK3β (Ser9) phosphorylation; test: Inhibitory GSK3β (Ser9) phosphorylation by Western blot in CHO cells; format: cell-based, Chinese Hamster; settings: for maximal increase of pGSK3β: 18 h, vs no treatment; for concentration at which increase of pGSK3β starts: 18 h treatment, WB densitometry
Method: as §1, §2

[7] = system: tau (Thr231) phosphorylation; test: Tau (Thr231) phosphorylation by Western blot in HEK293/tau cells; format: cell-based, human; settings: for effect on total tau levels: any dose
Method: as §1, §2

autistic features = settings: 2 mmol/kg i.p./day, Sprague-Dawley rats; cited from earlier work
[8] = all liposomes tested; cited from earlier work
[9] = rats; cited from earlier work; remark: listed apart in the source
[10] = long term oral administration, Tg2576 and 3XTg AD mice
[11] = 0.04 mmol lithium/mouse p.o., 0.5 and 5 h after gavage
[12] = NaCS at any dose between 5 and 90 μM, sulfate

O=C(O)[C@@H]1CCCN1.O=C([O-])c1ccccc1O.[Li+] [LISPRO]
brain lithium levels compared with lithium carbonate or lithium salicylate [1]: significantly higher brain lithium levels | plasma lithium levels compared with lithium carbonate or lithium salicylate [1]: more steady plasma lithium levels | AD-related behavioral impairment (AD pathology; AD mouse models): reduced AD-related behavioral impairment | AD pathology (β-amyloid plaques, tau hyperphosphorylation, neuroinflammation, neuronal and synaptic protein loss, GSK3β activity) (AD pathology; [10]): reduced AD pathology | renal inflammation (AD pathology; [10]): without eliciting renal inflammation | brain lithium levels compared with lithium carbonate or lithium salicylate [2]: significantly higher brain lithium levels | plasma lithium levels compared with lithium carbonate or lithium salicylate [2]: more steady plasma lithium levels

CC(C)CCC[C@@H](C)[C@H]1CC[C@H]2[C@@H]3CC=C4C[C@@H](OS(=O)(=O)[O-])CC[C@]4(C)[C@H]3CC[C@]12C.[Li+] [LiCS, lithium cholesterol sulfate]
lithium levels in the liver [3, 11]: failed to increase at any time | lithium levels in the kidney ([3]; 0.04 mmol lithium/mouse p.o., 0.5 and 5 h after gavage, listed as UCS, sulfate): LiCl but not UCS treatment markedly increases | lithium levels in the kidney ([3]; 0.04 mmol lithium/mouse p.o., 0.5 and 5 h after gavage, sulfate): failed to increase at any time | lithium blood levels compared with LiCl oral treatment ([3]; oral treatment, mice): more stable and last longer | crossing of the blood-brain barrier ([3]; oral treatment, mice, compared with LiCl): more readily crosses the blood-brain barrier | extent of pGSK3β increase at 60 μM [4]: maximally | concentration levels at which pGSK3β increased ([4]; CHO and SH-SY5Y cells): low micromolar levels | potency relative to LiCl in increasing inhibitory GSK3β (Ser9) phosphorylation ([4]; CHO and SH-SY5Y cells): 21-28 fold | effect on total GSK3β levels ([4]; 18 h, CHO and SH-SY5Y cells, sulfate): without altering; also recorded: neither LiCS, LiCl nor NaCS altered | potency compared with LiCl in increasing inhibitory GSK3β (Ser9) phosphorylation ([4]; both CHO and SH-SY5Y cells): more potent than LiCl | concentration at which increase of pGSK3β starts [4]: 10 μM | maximal increase of pGSK3β ([4]; LiCS at 60 μM): approximately 100% | maximal increase of pGSK3β ([5]; LiCS at 90 μM): 90% | concentration at which increase of pGSK3β starts [5]: 10 μM | effectiveness compared with LiCl in reducing microglial LPS-induced TNFα production (LPS-induced TNFα; BV2 cells): more effective than LiCl | potency relative to LiCl for reducing LPS-induced TNFα production (LPS-induced TNFα; BV2 cells): approximately 250 fold | concentration at which decrease of LPS-induced TNFα starts (LPS-induced TNFα; BV2 cells): 20 µM | maximal increase of pGSK3β ([6]; LiCS at 60 μM): 92% | concentration at which increase of pGSK3β starts [6]: 10 μM | concentration levels at which tau (Thr231) phosphorylation is reduced ([7]; HEK293/tau cells): at micromolar levels | concentration at which decrease of ptau (Thr231) starts ([7]; HEK293/tau cells, 18 h): 10 µM | maximal decrease of ptau (Thr231) ([7]; HEK293/tau cells, 18 h, LiCS at 40 μM): 63% | effect on total tau levels ([7]; 18 h, listed as UCS, sulfate): without altering | effect on total tau levels ([7]; 18 h, sulfate): neither LiCS, NaCS nor LiCl at any dose altered

[Cl-].[Li+] [LiCl, lithium chloride]
lithium levels in the brain [3, 11]: increased at 5 h | lithium levels in the kidney [3, 11]: increased at 0.5 and 5 h; also recorded: markedly increases | lithium levels in the liver [3, 11]: failed to increase at any time | extent of pGSK3β increase at 60 μM [4]: minimally | concentration levels at which pGSK3β increased ([4]; CHO and SH-SY5Y cells): high micromolar and low millimoloar levels | effect on total GSK3β levels ([4]; 18 h, CHO and SH-SY5Y cells): without altering; also recorded: neither LiCS, LiCl nor NaCS altered | concentration at which increase of pGSK3β starts [4]: 60 μM | maximal increase of pGSK3β ([4]; LiCl at 1.25 mM): approximately 100% | maximal increase of pGSK3β ([5]; LiCl at 2.5 mM): 119% | concentration at which increase of pGSK3β starts [5]: 60 μM | autistic features (social interaction deficit, repetitive self-grooming, anxiety, depression) (autistic features): reversed autistic features | concentration at which decrease of LPS-induced TNFα starts (LPS-induced TNFα; BV2 cells): 5000 µM | maximal increase of pGSK3β ([6]; LiCl at 1.25 mM): 91% | concentration at which increase of pGSK3β starts [6]: 160 μM | effect on ptau (Thr231) ([7]; LiCl at any dose between 60 μM and 1.25 mM, 18 h): not altered; also recorded: neither LiCl at any dose between 60 μM and 1.25 mM nor NaCS at any dose between 5 and 60 μM altered ptau; also recorded: ineffective even at millimolar levels; also recorded: failed to alter | effect on total tau levels ([7]; 18 h): neither LiCS, NaCS nor LiCl at any dose altered

CC(C)CCC[C@@H](C)[C@H]1CC[C@H]2[C@@H]3CC=C4C[C@@H](OS(=O)(=O)[O-])CC[C@]4(C)[C@H]3CC[C@]12C.[Na+] [NaCS, sodium cholesterol sulfate]
effect on pGSK3β ([4]; NaCS at 5-90 μM, 18 h, CHO and SH-SY5Y cells, sulfate): did not alter; also recorded: failed to alter | effect on total GSK3β levels ([4]; 18 h, CHO and SH-SY5Y cells): neither LiCS, LiCl nor NaCS altered | effect on LPS-induced TNFα level (LPS-induced TNFα; NaCS at any concentration between 20 and 80 μM): not altered | effect on LPS-induced TNFα level (LPS-induced TNFα; [12]): did not alter; also recorded: failed to alter | effect on ptau (Thr231) ([7]; NaCS at any dose between 5 and 60 μM, 18 h, sulfate): neither LiCl at any dose between 60 μM and 1.25 mM nor NaCS at any dose between 5 and 60 μM altered ptau | effect on ptau (Thr231) [7, 12]: did not alter; also recorded: failed to alter | effect on total tau levels ([7]; 18 h, sulfate): neither LiCS, NaCS nor LiCl at any dose altered

CC(C)CCC[C@@H](C)[C@H]1CC[C@H]2[C@@H]3CC=C4C[C@@H](OS(=O)(=O)O)CC[C@]4(C)[C@H]3CC[C@]12C [cholesterol sulfate]
rate of intermembrane exchange relative to cholesterol [8]: approximately 10 fold

O=C([O-])c1ccccc1O.[Li+] [lithium salicylate]
plasma lithium levels and elimination compared with lithium lactate [9]: longer elevated plasma lithium levels with a slower elimination process
